How the values were obtained:
[1] = system: various types of cancer cell lines; assay: Cytotoxicity test (SRB assay), summary over the six cancer cell lines; format: cell-based; conditions: Homo sapiens; range over six cancer cell lines; read-out: GI50 values ranging (over the cell lines of Table 2)
Procedure: (§1) Human cancer cell lines HCT-15 (colon cancer), NUGC-3 (stomach cancer), NCI-H23 ([…]), ACHN (kidney cancer), PC-3 (prostate cancer), and MDA-MB-231 (breast cancer) were purchased and used from American Type Culture Collection (Manassas, VA).
(§2) Each of the cancer cell lines was cultured in RPMI 1640 supplemented with 10% fetal bovine serum (FBS) at 37° C. in a humidified atmosphere of 5% CO2. Growth inhibition was evaluated for human cancer cell lines using a sulforhodamine B (SRB) assay. The cells were dispensed in a 96-well plate at a density of 8000 cells/well, and the next day, the cells were treated with each of Examples 1 and 2 (0.1% DMSO as vehicle control), and a positive control group was treated with Adriamycin. The cells were cultured for 48 hours, and then each culture medium was fixed with 50% trichloroacetic acid ([…]) and stained using 0.4% sulforhodamine B in 1% acetic acid. An unbound dye was washed with 1% acetic acid, and the dye bound to a protein was extracted with 10 mM Tris base (pH 10.5) to determine the optical density. Absorbance at 540 nm was determined using a VersaMax microplate reader (Molecular Devices, LLC, Sunnyvale, CA, USA). GI50 values were calculated using GraphPad Prism 4.0 software (GraphPad Software, Inc., San Diego, CA, USA), and the results are described in Table 2 below.

[2] = system: PC-3 (prostate cancer); assay: Cytotoxicity test against cancer cell lines (SRB assay), PC-3; format: cell-based; conditions: Homo sapiens, PC-3, 48 hours
Procedure: as §1, §2

[3] = system: human-derived breast cancer cell line MDA-MB-231; assay: Anticancer effect in animal test on breast cancer cell line (MDA-MB-231) transplanted in nude mice; format: in vivo, BALB/C nude mouse; conditions: for Inhibition rate (tumor size, vs Control group); tumor growth inhibition: day 23 (last day)
Procedure: Cancer cells (human-derived breast cancer cell line MDA-MB-231) that had been frozen-stored in liquid nitrogen were thawed and then cultured. The cells were cultured in a CO2 incubator (NuAire, USA) at a temperature of 37° C. and a CO2 concentration of 5%.
Lineage and Sex: Specific pathogen-free (SPF) BALB/C strain and female nude mouse (Orient Bio Co., Ltd.)
Week-old: Age at time of obtainment—5 week-old/Age at time of cancer cell transplantation—6 week-old/Age at time of drug administration—7 week-old
On the final day of cancer cell culture, all cancer cells were collected and counted, and the cell concentration was adjusted to 3×10^7 cells/ml using serum free media. 0.3 ml (9×10^6 cells/mouse) of the cell culture medium adjusted in this way per mouse was injected subcutaneously in the axillary area between the right scapular region and chest wall.
Calculation of Tumor Size Changes
After cancer cell transplantation, until the 23rd day since the average tumor size for each group reached about 14.2 mm^3, tumor sizes were measured a total 11 times in three directions using Vernier calipers for each individual, and then expressed in Equation of length×width×height/2.
On the 23rd day after the start of drug administration, all subjects were killed using CO2 gas, and the tumors were separated, weighed on chemical balance, and photographed.
Statistical analysis was performed using GraphPad Prism software from GraphPad Software. Changes in body weight and tumor volume according to a day were analyzed using a Bonferroni multiple comparison test after two-way ANOVA, and tumor weight on the final day was analyzed using a Dunnett's multiple comparison test after one-way ANOVA.

[4] = system: MDA-MB-231 (breast cancer); assay: Cytotoxicity test against cancer cell lines (SRB assay), MDA-MB-231; format: cell-based; conditions: Homo sapiens, MDA-MB-231, 48 hours
Procedure: as §1, §2

[5] = system: ACHN (kidney cancer); assay: Cytotoxicity test against cancer cell lines (SRB assay), ACHN; format: cell-based; conditions: Homo sapiens, 48 hours
Procedure: as §1, §2

[6] = system: NUGC-3 (stomach cancer); assay: Cytotoxicity test against cancer cell lines (SRB assay), NUGC-3; format: cell-based; conditions: Homo sapiens, NUGC-3, 48 hours
Procedure: as §1, §2

[7] = system: HCT-15 (colon cancer); assay: Cytotoxicity test against cancer cell lines (SRB assay), HCT-15; format: cell-based; conditions: Homo sapiens, HCT-15, 48 hours
Procedure: as §1, §2

[8] = system: NCI-H23; assay: Cytotoxicity test against cancer cell lines (SRB assay), NCI-H23; format: cell-based; conditions: Homo sapiens, NCI-H23, 48 hours
Procedure: as §1, §2

[9] = General symptoms and autopsy findings in MDA-MB-231 cancer cell transplant nude mice; conditions: 2 mg/kg repeatedly intraperitoneally
Procedure: Preparation and Administration of Experimental Substances Samples were prepared for administration in Examples 1 and 2. Each of the two compounds prepared above was dissolved in dimethylacetamide (DMAC) to make 0.1 mg/ml of a stock, and then 10% tween80 and 20% HPβCD 80% were added stepwise to a 10% DMAC stock to be prepared at a final concentration of 0.01 mg/ml, and as a comparison group for comparison of anticancer effects, doxorubicin was dissolved in physiological saline to prepare an experimental substance at a concentration of 0.2 mg/ml. The prepared experimental substance was repeatedly administered intraperitoneally total 18 times by 0.2 ml per 20 g of the mouse, 5 times a week on a dosing schedule (days 0 to 4, 7 to 11, 14 to 19, 21 to 23).

[10] = day 2, 0.1 mg/kg intraperitoneally
[11] = day 4, 0.1 mg/kg intraperitoneally
[12] = day 7, 0.1 mg/kg intraperitoneally
[13] = day 9, 0.1 mg/kg intraperitoneally
[14] = day 11, 0.1 mg/kg intraperitoneally
[15] = day 14, 0.1 mg/kg intraperitoneally
[16] = day 16, 0.1 mg/kg intraperitoneally
[17] = day 18, 0.1 mg/kg intraperitoneally
[18] = day 21, 0.1 mg/kg intraperitoneally
[19] = day 23, 0.1 mg/kg intraperitoneally
[20] = day 2, 2 mg/kg intraperitoneally
[21] = day 4, 2 mg/kg intraperitoneally
[22] = day 7, 2 mg/kg intraperitoneally
[23] = day 9, 2 mg/kg intraperitoneally
[24] = day 11, 2 mg/kg intraperitoneally
[25] = day 14, 2 mg/kg intraperitoneally
[26] = day 16, 2 mg/kg intraperitoneally
[27] = day 18, 2 mg/kg intraperitoneally
[28] = day 21, 2 mg/kg intraperitoneally
[29] = day 23, 2 mg/kg intraperitoneally

Which results are given for `COc1ccc2c(=O)c3c(O)c4c(c(O)c3oc2c1OC)CCc1c(OC2OC(C)C(OC)C(OC)C2OC)c2c(c(O)c1-4)C(=O)OC(C)C2` (stereo not shown) [Example 2, 8,15,16-trihydroxy-10,11-dimethoxy-3-methyl-5-((3,4,5-trimethoxy-6-methyltetrahydro-2H-pyran-2-yl)oxy)-3,4,6,7-tetrahydropyrano[4′,3′:6,7]naphtho[1,2-b]xanthene-1,14-dione]?
GI50 [1]: 3 to 5 nM; GI50 [2]: 3 nM; Tumor size (Δt = Vt − Vo) ([3]; day 0, 0.1 mg/kg intraperitoneally): 0 mm^3; Inhibition rate (tumor size, vs Control group) [3, 10]: 53.2%; Tumor size (Δt = Vt − Vo) [3, 10]: 5.8 mm^3; Inhibition rate (tumor size, vs Control group) [3, 11]: 59.3%; Tumor size (Δt = Vt − Vo) [3, 11]: 10.1 mm^3; Inhibition rate (tumor size, vs Control group) [3, 12]: 51.6%; Tumor size (Δt = Vt − Vo) [3, 12]: 23.6 mm^3; Inhibition rate (tumor size, vs Control group) [3, 13]: 49.3%; Tumor size (Δt = Vt − Vo) [3, 13]: 30.1 mm^3; Inhibition rate (tumor size, vs Control group) [3, 14]: 43.3%; Tumor size (Δt = Vt − Vo) [3, 14]: 53.1 mm^3; Inhibition rate (tumor size, vs Control group) [3, 15]: 50.7%; Tumor size (Δt = Vt − Vo) [3, 15]: 96.9 mm^3; Inhibition rate (tumor size, vs Control group) [3, 16]: 57.9%; Tumor size (Δt = Vt − Vo) [3, 16]: 155.5 mm^3; Inhibition rate (tumor size, vs Control group) [3, 17]: 46.1%; Tumor size (Δt = Vt − Vo) [3, 17]: 297 mm^3; Inhibition rate (tumor size, vs Control group) [3, 18]: 54.6%; Tumor size (Δt = Vt − Vo) [3, 18]: 447.7 mm^3; Inhibition rate (tumor size, vs Control group); tumor growth inhibition ([3]; 0.1 mg/kg intraperitoneally): 56.7%; Inhibition rate (tumor weight, vs Control group); reduction in tumor weight [3, 19]: 52.8%; Tumor size (Δt = Vt − Vo) [3, 19]: 593.3 mm^3; Tumor weight on final day [3, 19]: 1033.4 mg; GI50 [4]: 4 nM; GI50 [5]: 5 nM; GI50 [6]: 3 nM; GI50 [7]: 5 nM; GI50 [8]: 4 nM

Which GI50 [2] does the source give for `COc1cccc2c1C(=O)c1c(O)c3c(c(O)c1C2=O)C[C@@](O)(C(=O)CO)C[C@@H]3O[C@H]1C[C@H](N)[C@H](O)[C@H](C)O1` [doxorubicin] here?
Its GI50 is 137 nM.

What about the “General symptoms during administration and organs upon necropsy on the final day” value [9] of the same molecule?
The value was “no abnormal findings”.

What about the “Tumor size (Δt = Vt − Vo)” value ([3]; day 0, 2 mg/kg intraperitoneally) of the same molecule?
The value was 0 mm^3.

What about the “Inhibition rate (tumor size, vs Control group)” value [3, 20] of the same molecule?
The value was 65.3%.

What about the “Tumor size (Δt = Vt − Vo)” value [3, 20] of the same molecule?
Its value is 4.3 mm^3.

And the “Inhibition rate (tumor size, vs Control group)” value [3, 21]?
The value was 64%.

What about the “Tumor size (Δt = Vt − Vo)” value [3, 21] of the same molecule?
Its value is 8.9 mm^3.

What about the “Inhibition rate (tumor size, vs Control group)” value [3, 22] of the same molecule?
The value was 67.8%.

What about the “Tumor size (Δt = Vt − Vo)” value [3, 22] of the same molecule?
Its value is 15.7 mm^3.

What about the “Inhibition rate (tumor size, vs Control group)” value [3, 23] of the same molecule?
Its value is 67.9%.

What about the “Tumor size (Δt = Vt − Vo)” value [3, 23] of the same molecule?
Its value is 19.1 mm^3.

What about the “Inhibition rate (tumor size, vs Control group)” value [3, 24] of the same molecule?
Its value is 70.4%.

And the “Tumor size (Δt = Vt − Vo)” value [3, 24]?
Its value is 27.7 mm^3.

What about the “Inhibition rate (tumor size, vs Control group)” value [3, 25] of the same molecule?
The value was 80.5%.

What about the “Tumor size (Δt = Vt − Vo)” value [3, 25] of the same molecule?
Its value is 38.3 mm^3.

And the “Inhibition rate (tumor size, vs Control group)” value [3, 26]?
Its value is 83%.

And the “Tumor size (Δt = Vt − Vo)” value [3, 26]?
The value was 62.7 mm^3.

And the “Inhibition rate (tumor size, vs Control group)” value [3, 27]?
The value was 83.3%.

What about the “Tumor size (Δt = Vt − Vo)” value [3, 27] of the same molecule?
Its value is 92 mm^3.

What about the “Inhibition rate (tumor size, vs Control group)” value [3, 28] of the same molecule?
The value was 77.5%.

What about the “Tumor size (Δt = Vt − Vo)” value [3, 28] of the same molecule?
The value was 222.1 mm^3.

What about the “Inhibition rate (tumor size, vs Control group); tumor growth inhibition” value ([3]; 2 mg/kg intraperitoneally, listed as Comparison group, 2 mg/kg) of the same molecule?
The value was 79%.

And the “Inhibition rate (tumor size, vs Control group); tumor growth inhibition” value ([3]; 2 mg/kg intraperitoneally, listed as comparison group, 2 mg/kg)?
Its value is 79.0%.

And the “Inhibition rate (tumor weight, vs Control group); reduction in tumor weight” value [3, 29]?
Its value is 75.9%.

What about the “Tumor size (Δt = Vt − Vo)” value [3, 29] of the same molecule?
Its value is 287.9 mm^3.

And the “Tumor weight on final day” value [3, 29]?
Its value is 527.9 mg.

And the GI50 [4]?
The GI50 was 146 nM.

What about the GI50 [5] of the same molecule?
Its GI50 is 151 nM.

And the GI50 [6]?
The GI50 was 145 nM.

And the GI50 [7]?
Its GI50 is 153 nM.

And the GI50 [8]?
Its GI50 is 139 nM.

— patent US12679846B2, “Xanthone compound having excellent anticancer effect” (KOREA INSTITUTE OF OCEAN SCIENCE & TECHNOLOGY, priority 2021, dated 2026)
